Data: patent publication US20230091225A1, “Bifunctional chimeric heterocyclic compounds for targeted degradation of androgen receptors and use thereof” (HINOVA PHARMACEUTICALS INC., priority 2019, published 2023)
Where two headings read alike, the source gives them in different places.

Target: T1, androgen receptor (AR) (Homo sapiens, UniProt P10275)
T1 sequence (P10275 1-920): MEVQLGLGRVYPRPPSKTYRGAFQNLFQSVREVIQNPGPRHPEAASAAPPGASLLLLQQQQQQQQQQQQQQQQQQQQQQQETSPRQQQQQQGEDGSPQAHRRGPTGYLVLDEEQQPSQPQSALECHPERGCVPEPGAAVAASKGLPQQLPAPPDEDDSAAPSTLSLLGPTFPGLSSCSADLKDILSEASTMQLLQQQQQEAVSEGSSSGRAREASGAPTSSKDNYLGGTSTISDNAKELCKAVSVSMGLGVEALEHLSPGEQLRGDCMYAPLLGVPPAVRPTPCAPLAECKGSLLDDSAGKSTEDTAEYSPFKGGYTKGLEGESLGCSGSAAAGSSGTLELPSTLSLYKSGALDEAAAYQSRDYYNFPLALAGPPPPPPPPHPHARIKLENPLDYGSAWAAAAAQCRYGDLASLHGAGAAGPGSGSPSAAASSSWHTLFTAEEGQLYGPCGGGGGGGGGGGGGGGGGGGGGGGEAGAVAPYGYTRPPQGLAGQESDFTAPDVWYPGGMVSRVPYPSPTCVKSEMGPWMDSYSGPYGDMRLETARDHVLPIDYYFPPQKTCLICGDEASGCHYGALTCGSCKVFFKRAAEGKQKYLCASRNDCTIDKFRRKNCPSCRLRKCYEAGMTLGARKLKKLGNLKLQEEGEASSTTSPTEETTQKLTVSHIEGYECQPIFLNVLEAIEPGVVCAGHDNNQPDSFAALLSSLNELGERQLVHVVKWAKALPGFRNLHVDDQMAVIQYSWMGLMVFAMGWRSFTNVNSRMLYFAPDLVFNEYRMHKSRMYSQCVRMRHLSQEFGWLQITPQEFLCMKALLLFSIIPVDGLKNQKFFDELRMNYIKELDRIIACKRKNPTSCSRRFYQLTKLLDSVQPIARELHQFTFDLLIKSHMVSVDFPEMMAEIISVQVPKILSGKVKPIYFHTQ
Experiment: Degradation of androgen receptor (AR) protein in VCaP cells by ELISA
Type: cell-based
Conditions: for Dmax: VCaP

[1] = AR degradation, VCaP cells, 16 h, ELISA, Table 3-1, read-out: DC50
[2] = AR degradation, VCaP cells, 16 h, ELISA, Table 3-1, read-out: Dmax (%)
[3] = AR degradation, VCaP cells, 16 h, ELISA, Table 3-2, read-out: DC50

Compound	DC50 [1] [nM]	Dmax [2] [%]	also measured
N#Cc1ccc(O[C@H]2CC[C@H](NC(=O)c3cnc(N4CCC5(CN(CC6CCN(c7cc8c(cc7F)C(=O)N(C7CCC(=O)NC7=O)C8=O)CC6)C5)C4)cn3)CC2)cc1Cl (some centres unmarked) [Compound 189, N-((1r,4r)-4-(3-chloro-4-cyanophenoxy)cyclohexyl)-5-(2-((1-(2-(2,6-dioxopiperidin-3-yl)-6-fluoro-1,3-dioxoisoindolin-5-yl)piperidine-4-yl)methyl)-2,6-diazaspiro[3.4]octan-6-yl)pyrazine-2-carboxamide]	< 10	> 80	
N#Cc1ccc(O[C@H]2CC[C@H](NC(=O)c3cnc(N4CCC(CN5CCC6(C5)CN(c5cc7c(cc5F)C(=O)N(C5CCC(=O)NC5=O)C7=O)C6)CC4)cn3)CC2)cc1Cl (some centres unmarked) [Compound 186, N-((1r,4r)-4-(3-chloro-4-cyanophenoxy)cyclohexyl)-5-(4-((2-(2-(2,6-dioxopiperidin-3-yl)-6-fluoro-1,3-dioxoisoindolin-5-yl)-2,6-diazaspiro[3.4]octan-6-yl)methyl)piperidin-1-yl)pyrazine-2-carboxamide]	< 10	> 80	
N#Cc1ccc(O[C@H]2CC[C@H](NC(=O)c3ccc(N4CCC(CN5CCC6(CC5)CN(c5ccc7c(c5)C(=O)N(C5CCC(=O)NC5=O)C7=O)C6)CC4)nn3)CC2)cc1C(F)(F)F (some centres unmarked) [Compound 151]			DC50: < 10 nM; Dmax: > 80%
N#Cc1ccc(O[C@H]2CC[C@H](NC(=O)c3cnc(N4CCC(N5CCC6(CC5)CN(c5cc7c(cc5F)C(=O)N(C5CCC(=O)NC5=O)C7=O)C6)CC4)cn3)CC2)cc1Cl (some centres unmarked) [Compound 287, N-((1r,4r)-4-(3-chloro-4-cyanophenoxy)cyclohexyl)-5-(4-(2-(2-(2,6-dioxopiperidin-3-yl)-6-fluoro-1,3-dioxoisoindolin-5-yl)-2,7-diazaspiro[3.5]nonan-7-yl)piperidin-1-yl)pyrazine-2-carboxamide]	< 10	> 80	
CC1(C)[C@H](Oc2ccc(C#N)c(Cl)c2)C(C)(C)[C@H]1N1Cc2nc(C#CC3CCC(N4CC5CC4CN5c4cc5c(cc4F)C(=O)N(C4CCC(=O)NC4=O)C5=O)CC3)cnc2C1=O (some centres unmarked) [Compound 387]			Dmax (%) (AR degradation, VCaP cells, 16 h, ELISA, Table 3-2): + (<40%); DC50 [3]: > 300 nM
CC1(C)[C@H](Oc2ccc(C#N)c(Cl)c2)C(C)(C)[C@H]1N1Cc2nc(C#CC3CCC(N4CCC5(CN(c6cc7c(cc6F)C(=O)N(C6CCC(=O)NC6=O)C7=O)C5)C4)CC3)ccc2C1=O (some centres unmarked) [Compound 375]	< 10		
N#Cc1ccc(O[C@H]2CC[C@H](NC(=O)c3cnc(N4CCC5(CC4)CN(CC4CCN(c6cc7c(cc6F)C(=O)N(C6CCC(=O)NC6=O)C7=O)CC4)C5)cn3)CC2)cc1Cl (some centres unmarked) [Compound 76]	< 10	> 80	
C[C@@H]1CN(c2cnc(C(=O)N[C@H]3CC[C@H](Oc4ccc(C#N)c(Cl)c4)CC3)cn2)CCN1C[C@H]1[C@@H]2CN(c3cc4c(cc3F)C(=O)N(C3CCC(=O)NC3=O)C4=O)C[C@@H]21 (stereo partly drawn) [Compound 266, N-((1r,4R)-4-(3-chloro-4-cyanophenoxy)cyclohexyl)-5-((3R)-4-((1R,5S,6s)-3-(2-(2,6-dioxopiperidin-3-yl)-6-fluoro-1,3-dioxoisoindolin-5-yl)-3-azabicyclo[3.1.0]n-hexane-6-yl)methyl-3-methylpiperazin-1-yl)pyrazine-2-carboxamide]	10 to 100	> 80	
CC1(C)[C@H](Oc2ccc(C#N)c(Cl)c2)C(C)(C)[C@H]1N1Cc2nc(C#CC3CCC(N4CCC5(CN(c6cc7c(cc6F)C(=O)N(C6CCC(=O)NC6=O)C7=O)C5)C4)CC3)ccc2C1=O (some centres unmarked) [Compound 374]	< 10	> 80	
N#Cc1ccc(O[C@H]2CC[C@H](NC(=O)c3ccc(N4CCC5(CC4)CN(CC4CCN(c6cc7c(cc6F)C(=O)N(C6CCC(=O)NC6=O)C7=O)CC4)C5)nn3)CC2)cc1Cl (some centres unmarked) [Compound 75]	< 10	> 80	
CC1(C)[C@H](Oc2ccc(C#N)c(Cl)c2)C(C)(C)[C@H]1N1Cc2nc(C#C[C@H]3CC[C@H](N4CCN(c5cc6c(cc5F)C(=O)N(C5CCC(=O)NC5=O)C6=O)CC4)CC3)cnc2C1=O (some centres unmarked) [Compound 380]	10 to 100	60 to 80	
Cc1ncsc1-c1ccc([C@H](C)NC(=O)[C@@H]2C[C@@H](O)CN2C(=O)[C@@H](NC(=O)COCCCCC#Cc2ccc3c(n2)CN([C@H]2C(C)(C)[C@H](Oc4ccc(C#N)c(Cl)c4)C2(C)C)C3=O)C(C)(C)C)cc1 [Compound 36, (2S,4R)-1-((S)-2-(2-((6-(6-((1r,3r)-3-(3-chloro-4-cyanophenoxy)-2,2,4,4-tetramethylcyclobutyl)-5-oxo-6,7-dihydro-5H-pyrrolo[3,4-b]pyridin-2-yl)hex-5-yn-1-yl)oxy)acetylamino)-3,3-dimethylbutyryl)-4-hydroxy-N-((S)-1-(4-(4-methylthiazol-5-yl)phenyl)ethyl)pyrrolidine-2-carboxamide]			inhibition at 0.1 µM (percentage of degraded AR at 100 nM, VCaP cells, 16 h, ELISA, read-out: % degradation): 25 to 49%
N#Cc1ccc(O[C@H]2CC[C@H](NC(=O)c3ncc(N4CCC(CN5CCC6(CC5)CN(c5ccc7c(c5)C(=O)N(C5CCC(=O)NC5=O)C7=O)C6)CC4)cn3)CC2)cc1Cl (some centres unmarked) [Compound 135]	> 300	< 40	
CC1(C)[C@H](Oc2ccc(C#N)c(Cl)c2)C(C)(C)[C@H]1N1Cc2nc(C#CC3CCC(N4CCC5(CC4)CN(c4cc6c(cc4F)C(=O)N(C4CCC(=O)NC4=O)C6=O)C5)CC3)ccc2C1=O (some centres unmarked) [Compound 363]	10 to 100	60 to 80	
N-((1r,4r)-4-(3-chloro-4-cyanophenoxy)cyclohexyl)-6-(4-((6-(2-(2,6-dioxopiperidin-3-yl)-6-fluoro-1,3-dioxoisoindolin-5-yl)-2,6-diazaspiro[3.3]heptan-2-yl)methyl)piperidin-1-yl)pyrazine-2-amide [Compound 123]			Dmax (%): ++++ (key: A: >80%; B: 79%-50%; C: 49%-25%; D: <25%); DC50 (read-out: DC50): < 10 nM
CC1(C)[C@H](Oc2ccc(C#N)c(Cl)c2)C(C)(C)[C@H]1N1Cc2nc(C#C[C@H]3C[C@H](N4CCN(c5cnn(C6CCC(=O)NC6=O)c(=O)c5)CC4)C3)ccc2C1=O (some centres unmarked) [Compound 394]			DC50 [3]: 10 to 100 nM; Dmax (AR degradation, VCaP cells, 16 h, ELISA, Table 3-2, read-out: Dmax (%)): 60 to 80%
CC1(C)C(Oc2ccc(C#N)c(Cl)c2)C(C)(C)C1N1Cc2nc(N3CCC(CN4CCN(c5cc6c(cc5F)C(=O)N([C@@H]5CCC(=O)NC5=O)C6)CC4)CC3)ccc2C1=O (some centres unmarked) [Compound 212]			% degradation: C (key: A: >80%; B: 79%-50%; C: 49%-25%; D: <25%)
CC1(C)[C@H](Oc2ccc(C#N)c(Cl)c2)C(C)(C)[C@H]1N1Cc2nc(N3CCC(CN4CCN(c5ccc6c(c5)C(=O)N(C5CCC(=O)NC5=O)C6=O)CC4)CC3)ncc2C1=O (some centres unmarked) [Compound 383]	10 to 100	> 80	
N#Cc1ccc(OC2CCC(NC(=O)c3ncn(C4CCC(CN5CCC6(CC5)CN(c5cc7c(cc5F)C(=O)N(C5CCC(=O)NC5=O)C7=O)C6)CC4)n3)CC2)cc1Cl [Compound 85, N-((1r,4R)-4-(3-chloro-4-cyanophenoxy)cyclohexyl)-1-((1r,4R)-4-((2-(2,6-dioxopiperidin-3-yl)-6-fluoro-1,3-dioxoisoindolin-5-yl)-2,7-diazaspiro[3.5]nonan-7-yl)methyl)cyclohexyl)-1H-1,2,4-triazole-3-formamide]	10 to 100		Dmax (%) (AR degradation, VCaP cells, 16 h, ELISA, Table 3-1): ++++ (>80%)
CC1(C)[C@H](Oc2ccc(C#N)c(Cl)c2)C(C)(C)[C@H]1N1Cc2nc(C#CC3CCC(N4CC5(CN(c6ccc7c(c6)C(=O)N([C@@H]6CCC(=O)NC6=O)C7=O)C5)C4)CC3)ccc2C1=O (some centres unmarked) [Compound 350, 2-Chloro-4-((1r,3r)-3-(2-((4-(6-(2-(2,6-dioxopiperidin-3-yl)-1,3-dioxoisoindolin-5-yl)-2,6-diazaspiro[3.3]heptane-2-yl)cyclohexyl)ethynyl)-5-oxo-5,7-dihydro-6H-pyrrolo[3,4-b]pyridin-6-yl)-2,2,4,4-tetramethylcyclobutoxy) benzonitrile]			Dmax (%): ++ (key: ++++: >80%; +++: 80%-60%; ++: 60%-40%; +: <40%); DC50 (read-out: DC50): 100 to 300 nM
N#Cc1ccc(O[C@H]2CC[C@H](NC(=O)c3cnc(N4CCC(CN5CCC6(CC5)CN(c5cc7c(cc5F)C(=O)N(C5CCC(=O)NC5=O)C7=O)C6)CC4)cn3)CC2)cc1Cl (some centres unmarked) [Compound 233]	< 10	> 80	
N#Cc1ccc(O[C@H]2CC[C@H](NC(=O)c3ncc(N4CC5(CCN(C6CCN(c7ccc8c(c7)C(=O)N(C7CCC(=O)NC7=O)C8=O)CC6)CC5)C4)cn3)CC2)cc1Cl (some centres unmarked) [Compound 106, N-((1r,4r)-4-(3-chloro-4-cyanophenoxy)cyclohexyl)-5-(7-(1-(2-(2,6-dioxopiperidin-3-yl)-1,3-dioxoisoindolin-5-yl)piperidine-4-yl)-2,7-diazaspiro[3.5]nonan-2-yl)pyrimidine-2-carboxamide]			DC50 [3]: > 300 nM; Dmax: < 40%
